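A five-concentration, 48-hour dose response in 96-well plates underlies each endpoint, interpolated linearly between surrounding concentrations. TGI: total growth inhibition.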
How the values were obtained:
Experiment in all cases: NCI-60 cell line screen, 48 h
786-0 renal = test system: 786-0 renal
A498 renal = test system: A498 renal
A549 NSCLC = test system: A549 NSCLC
ACHN renal = test system: ACHN renal
BT-549 breast = test system: BT-549 breast
CAKI-1 renal = test system: CAKI-1 renal
COLO 205 colon = test system: COLO 205 colon
DU-145 prostate = test system: DU-145 prostate
EKVX NSCLC = test system: EKVX NSCLC
HCC-2998 colon = test system: HCC-2998 colon
HCT-116 colon = test system: HCT-116 colon
HCT-15 colon = test system: HCT-15 colon
HOP-62 NSCLC = test system: HOP-62 NSCLC
HOP-92 NSCLC = test system: HOP-92 NSCLC
HS 578T breast = test system: HS 578T breast
HT29 colon = test system: HT29 colon
IGROV1 ovarian = test system: IGROV1 ovarian
K-562 leukemia = test system: K-562 leukemia
KM12 colon = test system: KM12 colon
M14 melanoma = test system: M14 melanoma
MALME-3M melanoma = test system: MALME-3M melanoma
MCF7 breast = test system: MCF7 breast
MDA-MB-231 breast = test system: MDA-MB-231 breast
MDA-MB-435 = test system: MDA-MB-435
MDA-N = test system: MDA-N
MOLT-4 leukemia = test system: MOLT-4 leukemia
NCI-H23 lung = test system: NCI-H23 lung
NCI-H460 lung = test system: NCI-H460 lung
NCI-H522 lung = test system: NCI-H522 lung
NCI/ADR-RES ovarian = test system: NCI/ADR-RES ovarian
OVCAR-3 ovarian = test system: OVCAR-3 ovarian
OVCAR-4 ovarian = test system: OVCAR-4 ovarian
OVCAR-5 ovarian = test system: OVCAR-5 ovarian
OVCAR-8 ovarian = test system: OVCAR-8 ovarian
PC-3 prostate = test system: PC-3 prostate
RPMI-8226 leukemia = test system: RPMI-8226 leukemia
RXF 393 renal = test system: RXF 393 renal
SF-268 CNS = test system: SF-268 CNS
SF-295 CNS = test system: SF-295 CNS
SK-MEL-2 melanoma = test system: SK-MEL-2 melanoma
SK-MEL-28 melanoma = test system: SK-MEL-28 melanoma
SK-MEL-5 melanoma = test system: SK-MEL-5 melanoma
SK-OV-3 ovarian = test system: SK-OV-3 ovarian
SNB-19 CNS = test system: SNB-19 CNS
SNB-75 CNS = test system: SNB-75 CNS
SW-620 colon = test system: SW-620 colon
TK-10 renal = test system: TK-10 renal
U251 CNS = test system: U251 CNS
UACC-257 melanoma = test system: UACC-257 melanoma
UACC-62 melanoma = test system: UACC-62 melanoma
UO-31 renal = test system: UO-31 renal
CCRF-CEM leukemia = test system: CCRF-CEM leukemia
HL-60(TB) leukemia = test system: HL-60(TB) leukemia
LOX IMVI melanoma = test system: LOX IMVI melanoma
NCI-H226 lung = test system: NCI-H226 lung
SF-539 CNS = test system: SF-539 CNS
SN12C renal = test system: SN12C renal
T-47D breast = test system: T-47D breast

Measured: TGI

O=C(NCCC1CN(C(=O)OCc2ccccc2)c2ccccc21)OCc1ccccc1 (stereo not given)
> 100 µM: 786-0 renal | A498 renal | A549 NSCLC | ACHN renal | BT-549 breast | CAKI-1 renal | COLO 205 colon | DU-145 prostate | EKVX NSCLC | HCC-2998 colon | HCT-116 colon | HCT-15 colon | HOP-62 NSCLC | HOP-92 NSCLC | HS 578T breast | HT29 colon | IGROV1 ovarian | K-562 leukemia | KM12 colon | M14 melanoma | MALME-3M melanoma | MCF7 breast | MDA-MB-231 breast | MDA-MB-435 | MDA-N | MOLT-4 leukemia | NCI-H23 lung | NCI-H460 lung | NCI-H522 lung | NCI/ADR-RES ovarian | OVCAR-3 ovarian | OVCAR-4 ovarian | OVCAR-5 ovarian | OVCAR-8 ovarian | PC-3 prostate | RPMI-8226 leukemia | RXF 393 renal | SF-268 CNS | SF-295 CNS | SK-MEL-2 melanoma | SK-MEL-28 melanoma | SK-MEL-5 melanoma | SK-OV-3 ovarian | SNB-19 CNS | SNB-75 CNS | SW-620 colon | TK-10 renal | U251 CNS | UACC-257 melanoma | UACC-62 melanoma | UO-31 renal

O=C(c1ccccc1Cl)n1oc2ccccc2c1=O
68.8 µM: RPMI-8226 leukemia
> 100 µM: 786-0 renal | A498 renal | A549 NSCLC | ACHN renal | BT-549 breast | CAKI-1 renal | COLO 205 colon | DU-145 prostate | EKVX NSCLC | HCT-116 colon | HCT-15 colon | HOP-62 NSCLC | HOP-92 NSCLC | HS 578T breast | HT29 colon | IGROV1 ovarian | K-562 leukemia | KM12 colon | LOX IMVI melanoma | M14 melanoma | MALME-3M melanoma | MCF7 breast | MDA-MB-231 breast | MDA-MB-435 | MDA-N | NCI-H226 lung | NCI-H460 lung | NCI-H522 lung | NCI/ADR-RES ovarian | OVCAR-3 ovarian | OVCAR-4 ovarian | OVCAR-5 ovarian | OVCAR-8 ovarian | PC-3 prostate | RXF 393 renal | SF-268 CNS | SF-295 CNS | SF-539 CNS | SK-MEL-2 melanoma | SK-MEL-28 melanoma | SK-MEL-5 melanoma | SK-OV-3 ovarian | SN12C renal | SNB-19 CNS | SNB-75 CNS | SW-620 colon | T-47D breast | TK-10 renal | U251 CNS | UACC-257 melanoma | UACC-62 melanoma | UO-31 renal
51 µM: HL-60(TB) leukemia
51.3 µM: MOLT-4 leukemia
74 µM: CCRF-CEM leukemia

CC(C)(C)c1ccc2c(c1)C#Cc1cc(C(C)(C)C)ccc1OCCCO2
> 100 µM: 786-0 renal | A498 renal | A549 NSCLC | ACHN renal | BT-549 breast | CAKI-1 renal | CCRF-CEM leukemia | COLO 205 colon | DU-145 prostate | EKVX NSCLC | HCT-116 colon | HCT-15 colon | HL-60(TB) leukemia | HOP-62 NSCLC | HS 578T breast | HT29 colon | IGROV1 ovarian | K-562 leukemia | KM12 colon | LOX IMVI melanoma | M14 melanoma | MALME-3M melanoma | MCF7 breast | MDA-MB-231 breast | MDA-MB-435 | MDA-N | MOLT-4 leukemia | NCI-H226 lung | NCI-H23 lung | NCI-H460 lung | NCI-H522 lung | NCI/ADR-RES ovarian | OVCAR-3 ovarian | OVCAR-4 ovarian | OVCAR-5 ovarian | OVCAR-8 ovarian | PC-3 prostate | RPMI-8226 leukemia | RXF 393 renal | SF-268 CNS | SF-295 CNS | SK-MEL-2 melanoma | SK-MEL-28 melanoma | SK-MEL-5 melanoma | SN12C renal | SNB-19 CNS | SW-620 colon | T-47D breast | TK-10 renal | U251 CNS | UACC-257 melanoma | UACC-62 melanoma | UO-31 renal
